Data taken from patent US6440952B2, “Phosphono-carboxylate compounds for treating amyloidosis” (Queen's University at Kingston, priority 1999, dated 2002).
Structures can show the parent of a compound that is named as a salt.

Experiments:
Aβ peptide = target: T1, Aβ peptide (Homo sapiens, UniProt P05067); assay: in vitro circular dichroism (CD) assay for formation of β-sheet secondary structure; assay type: biochemical; conditions: Aβ peptide with test compound in 10 mM Tris-HCl pH 7, incubated 0 or 24 hours at 37° C.
T1 construct: Aβ is a 40 amino acid protein associated with Alzheimer's disease; made in house; host or cells: chemical solid-phase peptide synthesis (no expression host)
T1 sequence (P05067 672-711 limits assumed): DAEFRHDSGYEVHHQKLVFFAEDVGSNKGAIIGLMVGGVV
Description: It is known that amyloidogenic peptides or proteins which have formed amyloid deposits or plaques have a significant amount of β-sheet secondary structure, while the unaggregated peptide or protein generally has less β-sheet structure. It is believed that the ability of a candidate therapeutic compound to prevent the formation of β-sheet secondary structure in vitro may be correlated with the ability of the compound to inhibit amyloidogenesis in vivo. Accordingly, phosphonate compounds were assayed for ability to prevent the formation of β-sheet secondary structure in assay systems including an in vitro circular dichroism (CD) assay.
Aβ is a 40 amino acid protein associated with Alzheimer's disease. Aβ peptide was prepared and purified as described in Fraser, P. E. et al., Biochemistry 31, 10716 (1992). Briefly, the peptide was synthesized by standard solid-phase techniques and purified by HPLC according to well known procedures.
All CD experiments were performed on a commercially available instrument. The cell is was maintained at 25° C. using a circulating water bath. Computer-averaging of traces was performed to improve signal-to-noise ratios. The solvent signal was subtracted. CD experiments were performed for each test compound according to the following procedure:
A stock solution of purified peptide was made by dissolving the peptide in phosphate-buffered saline (PBS) to a concentration of 2 mg/ml. A test solution was made for each potential therapeutic agent (test compound) as shown below:
The control sample had no test compound, and a total of 5 μl distilled water was added. The test solution was incubated for either 0 or 24 hours at 37° C. before CD measurement. The size minimum in the CD spectrum at 218 nm is believed to be diagnostic of the presence of β-pleated sheet. Comparison of the minimum at 218 nm of a candidate compound, compared to the minimum of a control sample, is believed to be indicative of the ability of the candidate compound to inhibit the formation of β-pleated sheet.

amyloid peptide = target: T2, amyloid peptide (Homo sapiens, UniProt P05067); assay: amyloid peptide solubility assay (overnight incubation, centrifugation, determination of soluble peptide); assay type: biochemical; conditions: compound and amyloid peptide incubated together overnight, preliminary result, buffer composition may have interfered
T2 construct: Aβ is a 40 amino acid protein associated with Alzheimer's disease
T2 sequence (P05067 672-711 limits assumed): as above

[1] = tested on: cortical/hippocampal neuronal cultures; assay: neurotoxicity in cortical/hippocampal neuronal cultures; assay type: cell-based; conditions: concentrations ranging from 10^−7M to 10^−4 M

Row | SMILES | reduction of β-sheet formation as measured by the CD assay (minimum at 218 nm versus control) (Aβ peptide) | effect on amyloid peptide solubility (amyloid peptide) | neurotoxicity [1]
1 | O=C(O)CCP(=O)(O)O [2 carboxyethylphosphonic acid] | lower ability to prevent β-pleated sheet formation | – | –
2 | O=C(O)CP(=O)(O)O [Phosphonoacetate] | active | – | –
3 | O=C(O)P(=O)(O)O [phosphonoformate trisodium salt, Trisodium phosphonoformate] | significantly and reproducibly reduce the amount of β-sheet formation | little effect on amyloid peptide solubility | no significant toxicity
